According to article PMC11648822, “Lactam Truncation Yields a Dihydroquinazolinone Scaffold with Potent Antimalarial Activity that Targets PfATP4” (Chemmedchem, 2024):
≈ marks a conversion by molar mass, not a printed value. Where two headings read alike, the source gives them in different places. Marks after values point to notes of the source that are not given here.

What was measured:
[1] = test system: P. falciparum (Pf) 3D7 parasites; assay: P. falciparum LDH viability assay; type: cell-based; details: Plasmodium falciparum, 3D7, 72 h, LDH activity at 72 h; mean and SD of 3 independent experiments
From the text: This assay is a platform assay conducted at the Walter and Eliza Hall Institute and uses a protocol previously decsribed.[30, 31]

[2] = Human HepG2 cytotoxicity assay (Cell Titre Glo); type: cell-based; details: HepG2 cells, growth inhibition at 48 h, 4 replicate experiments, read-out: HepG2 CC50 (SD)
From the text: This assay uses Cell TitreGlo as a metabolic maker for human HepG2 cell growth and uses a protocol previously described.[32]

eLogD shake-flask method = type: physicochemical
From the text: (§1) Human liver microsome stability, rat hepatocyte stability, aqueous solubility and eLogD are platform assays conducted by TCG Lifesciences and undertaken using previously described protocols.[10]

[3] = Human liver microsome stability; type: in vitro ADME; details: human liver microsomes; read-out: HLM CLint
From the text: as §1

Rat hepatocyte stability = type: in vitro ADME; details: rat hepatocytes; read-out: Rat Hep CLint
From the text: as §1

[4] = Aqueous solubility (pH 7.4); type: physicochemical
From the text: as §1

[5] = test system: P. falciparum Dd2 parental strain; assay: PfATP4 drug resistant parasite viability assay (LDH), Dd2 parental; type: cell-based; details: Plasmodium falciparum, DD2, 72 h, read-out: Dd2^parental EC50 (SD)
Procedure: (§2) These assays were performed according to a previously described protocol.[16] Briefly, P. falciparum Dd2 strains treated with compound were incubated for 72 h at 37 °C. After incubating for 72 h, plates were frozen at −80 °C and then thawed at room temperature for at least 2 h. LDH activity, a surrogate for parasite growth was measured by the addition of the Malstst reagent mix, followed by incubation for 30 min and absorbance read using a ClarioStar Microplate reader at 650 nm. Values were normalized to DMSO control as a percentage and EC50 and dose response curves generated using GraphPad Prism.

[6] = test system: P. falciparum Dd2 strain with 2.8-fold amplification in PfATP4; assay: 'compound 49' resistant parasite viability assay (LDH), Dd2 2.8 CNV; type: cell-based; details: Plasmodium falciparum, DD2, 72 h, read-out: Dd2^2.8 CNV EC50 (SD)
Procedure: as §2

[7] = test system: P. falciparum Dd2 PfATP4^triple (I398F, P990R, D1247Y) strain; assay: PfATP4 drug resistant parasite viability assay (LDH), Dd2 triple; type: cell-based; details: Plasmodium falciparum, DD2, 72 h, read-out: Dd2^triple EC50 (SD)
Procedure: as §2

[8] = test system: P. falciparum 3D7 parasites; assay: P. falciparum viability assay (SYBR green), 3D7; type: cell-based; details: Plasmodium falciparum, read-out: P. falciparum parental EC50 (SD) 3D7
Procedure: These assays were performed as previously described.[16] […] Parasites were synchronised with 5 % (w/v) sorbitol (Sigma‐Aldrich) treatments for ring stages. […] Parasites were grown in 1 % haematocrit, at 1 % and 2 % parasitaemia for P. falciparum and P. knowlesi respectively. […] Parasitaemia was measured using a SYBR DNA staining assay on a fluorometer.[33] After the incubation period, supernatants were removed and well contents were resuspended in PBS.

P. falciparum W2^mef = assay: Multidrug-resistant parasite viability assay (SYBR green), W2mef; type: cell-based; details: Plasmodium falciparum, W2, 72 h, read-out: multidrug resistant P. falciparum strains EC50 (SD) W2^mef
Procedure: (§3) These assays were performed as previously described.[16] P. falciparum 3D7 parasites and resistant lines Dd2, W2mef, 7G8, and artemisinin‐resistant Cambodian isolate (Cam3.I (2539T)), and P. knowlesi YH1, were cultured in human O^+ erythrocytes (RBCs) (Australian Red Cross Blood Service), in RPMI‐HEPES culture medium (pH 7.4, 50 μg/mL hypoxanthine, 25 mM NaHCO3, 20 μg/mL gentamicin, 0.5 % Albumax II (GibcoBRL)) (Thermo Fisher Scientific) and maintained in an atmosphere of 1 % O2, 4 % CO2 and 95 % N2. Parasites were synchronised with 5 % (w/v) sorbitol (Sigma‐Aldrich) treatments for ring stages. Growth assays for measuring drug inhibition of in‐cycle, ring to schizont stage parasites have been described previously. Parasites were grown in 1 % haematocrit, at 1 % and 2 % parasitaemia for P. falciparum and P. knowlesi respectively. […] Parasitaemia was measured using a SYBR DNA staining assay on a fluorometer.[33] After the incubation period, supernatants were removed and well contents were resuspended in PBS.

P. falciparum 7G8 = assay: Multidrug-resistant parasite viability assay (SYBR green), 7G8; type: cell-based; details: Plasmodium falciparum, 7G8, 72 h, read-out: multidrug resistant P. falciparum strains EC50 (SD) 7G8
Procedure: as §3

[9] = test system: P. falciparum NF54 male gametes; assay: Dual gamete formation assay, male; type: cell-based; details: Plasmodium falciparum; NF54 stage V gametocytes, 48 h incubation; exflagellation 20 min after induction
Procedure: (§4) PfATP4 inhibitors are known to block the transmission of parasites from humans to mosquitoes by interfering with both gametocytes and gamete development.[29] We evaluated a subset of truncated analogues against male and female gametes using a previously described assay. In this assay, stage V gametocytes are treated with compounds and then xanthurenic acid is added and a drop in temperature is used to simulate the mosquito gut environment to induce gametogenesis. After 30 min of compound treatment, male gamete viability is determined by microscopy measuring exflagellation, and after 24 h of compound treatment, female viability is measured using a female gamete specific αPfs25 antibody.
(§5) The compounds were evaluated as previously described.[34] Briefly, mature P. falciparum NF54 stage V gametocytes were exposed to compounds for 48 h at 37 °C in 384 well plates in gametocyte culture medium (RPMI 1640 supplemented with 25 mM HEPES, 50 μg mL^−1 hypoxanthine, 4.8 g L^−1 NaHCO3, 2 mM L‐glutamine, 5 % pooled type AB serum, 0.5 % Albumax II (Gibco)) under a 1 % O2/ 3 % CO2/ 96 % N2 environment. Gametogenesis was then triggered by the addition of 10 μL ookinete medium (gametocyte culture medium supplemented with 100 μM xanthurenic acid and 0.27 μg mL^−1 Cy3‐labelled anti‐Pfs25 antibody) to each well at room temperature. Plates were then cooled on a metal block at 4 °C for four min to ensure even cooling and then stabilised for a further 4 min at 28 °C. At 20 min post‐induction, male gametogenesis was recorded in each well by automated brightfield microscopy using a x4 objective lens and 1.5x magnifier (x6 effective magnification). Afterward, plates were incubated in the dark at room temperature for 24 h and then female gametogenesis was recorded in each well by automated fluorescence microscopy (anti‐Pfs25‐positive cells). […] All data was evaluated in comparison to the positive and negative controls to calculate percentage inhibition of male and female gametocytes, and dose response analysis and EC50 calculation were performed using GraphPad Prism.

[10] = test system: P. falciparum NF54 female gametes; assay: Dual gamete formation assay, female; type: cell-based; details: Plasmodium falciparum; NF54 stage V gametocytes, 48 h incubation; αPfs25 antibody 24 h after induction
Procedure: as §4, §5

[11] = aqueous medium at pH 7.4, pH 7.4, aqueous buffer

SMILES | EC50 [1] [nM] | CC50 at 48 h [2] [nM] | eLogD (eLogD shake-flask method) | microsomal CLint [3] [µL/min/mg] | hepatocyte CLint (Rat hepatocyte stability) [µL/min/1e6 cells] | solubility [4, 11] [µM] | EC50 [5] [nM] | EC50 [6] [nM] | EC50 [7] [nM] | EC50 ([8]; 3D7, 72 h) [nM] | EC50 (P. falciparum W2^mef) [nM] | EC50 (P. falciparum 7G8) [nM] | EC50 [9] [nM] | EC50 [10] [nM] | EC50 ([8]; 3D7, SYBR green, 72 h) [nM] | solubility ([4]; aqueous medium (pH 7.4; buffer not named), pH 7.4, aqueous buffer) [µM] | solubility ([4]; aqueous medium at pH 7.4 (buffer not named), pH 7.4, aqueous buffer) [µM]
CN1C(=O)c2ccc(-n3cccn3)cc2NC1(C)C(=O)Nc1cncc(Cl)c1 (stereo not shown) [Compound 33, N‐(5‐Chloropyridin‐3‐yl)‐2,3‐dimethyl‐4‐oxo‐7‐(1H‐pyrazol‐1‐yl)‐1,2,3,4‐tetrahydroquinazoline‐2‐carboxamide] | 65 | > 40000 | 3.2^[d] | 37 | 14 | 2.6 (≈ 1.03 µg/mL) | 73 | 124 | 584 | 45 | 39 | 101 | 460 | 1000 |  |  | 
COc1cc(F)c2c(c1)NC(C)(C(=O)Nc1cncc(Cl)c1)N(C)C2=O (stereo not shown) [Compound 36, N‐(5‐Chloropyridin‐3‐yl)‐5‐fluoro‐7‐methoxy‐2,3‐dimethyl‐4‐oxo‐1,2,3,4‐tetrahydroquinazoline‐2‐carboxamide] | 21 | > 40000 | 2.6^[d] | 34 | 8 | 4 (≈ 1.52 µg/mL) | 32 | 56 | 100 |  | 10 | 31 | 110 | 210 | 10 |  | 
CN1C(=O)c2ccc(Cl)cc2NC1(C)C(=O)Nc1cncc(Cl)c1 (stereo not shown) [Compound 14, 7‐Chloro‐N‐(5‐chloro‐3‐pyridyl)‐2,3‐dimethyl‐4‐oxo‐1H‐quinazoline‐2‐carboxamide] | 33 | > 40000 | 3.2^[d] | 60 | 25 |  | 50 | 61 | 160 |  | 17 | 43 | 130 | 120 | 16 | 5.2 (≈ 1.9 µg/mL) | < 5.2
